# According to ChEMBL document CHEMBL3817770, “Design and synthesis of 5-aminolaevulinic acid/3-hydroxypyridinone conjugates for photodynamic therapy: enhancement of protoporphyrin IX production and photo-toxicity in tumor cells” (Medchemcomm, 2016):
# Active and inactive are the calls of the source. The rule behind the calls is not given here.
# Legend:
# LNCaP [1] = experiment: Phototoxicity in human LNCAP cells assessed as cell survival at 200 uM incubated for 4 hrs followed by irradiation with blue light for 5 mins by MTT assay; format: functional
# KB [2] = experiment: Phototoxicity in human KB cells assessed as cell survival at 200 uM incubated for 4 hrs followed by irradiation with blue light for 5 mins by MTT assay; format: functional
# LNCaP [3] = experiment: Dark toxicity in human LNCAP cells at 200 uM after 4 hrs by MTT assay; format: cell-based
# [4] = Increase in protoporphyrin 9 levels in human BPH1 cells at 100 uM after 24 hrs by fluorescence spectrometer plate reader method relative to ALA; format: ADME, cell-based; settings: bph-1, 24 h
# A549 [5] = experiment: Phototoxicity in human A549 cells assessed as cell survival at 200 uM incubated for 4 hrs followed by irradiation with blue light for 5 mins by MTT assay; format: functional
# MCF7 [6] = experiment: Dark toxicity in human MCF7 cells at 200 uM after 4 hrs by MTT assay; format: cell-based; settings: mcf7, 4 h
# A549 [7] = experiment: Increase in protoporphyrin 9 levels in human A549 cells at 200 uM after 3 to 24 hrs by fluorescence spectrometer plate reader method; format: functional, cell-based
# KB [8] = experiment: Increase in protoporphyrin 9 levels in human KB cells at 200 uM after 3 to 24 hrs by fluorescence spectrometer plate reader method; format: functional, cell-based
# A549 [9] = experiment: Phototoxicity in human A549 cells assessed as cell survival at 100 uM incubated for 4 hrs followed by irradiation with blue light for 5 mins by MTT assay; format: functional
# [10] = Dark toxicity in human BPH1 cells at 200 uM after 4 hrs by MTT assay; format: cell-based; settings: bph-1, 4 h
# [11] = Increase in protoporphyrin 9 levels in human BPH1 cells at 200 uM after 3 to 24 hrs by fluorescence spectrometer plate reader method; format: ADME, cell-based; settings: bph-1, 200 µM
# KB [12] = experiment: Increase in protoporphyrin 9 levels in human KB cells at 100 uM after 24 hrs by fluorescence spectrometer plate reader method relative to ALA; format: functional
# A549 [13] = experiment: Increase in protoporphyrin 9 levels in human A549 cells at 100 uM after 24 hrs by fluorescence spectrometer plate reader method relative to ALA; format: functional
# LNCaP [14] = experiment: Phototoxicity in human LNCAP cells assessed as cell survival at 100 uM incubated for 4 hrs followed by irradiation with blue light for 5 mins by MTT assay; format: functional
# LNCaP [15] = experiment: Increase in protoporphyrin 9 levels in human LNCAP cells at 100 uM after 24 hrs by fluorescence spectrometer plate reader method relative to ALA; format: functional
# [16] = Phototoxicity in human BPH1 cells assessed as cell survival at 200 uM incubated for 4 hrs followed by irradiation with blue light for 5 mins by MTT assay; format: cell-based, BPH-1; settings: bph-1, 4 h, 200 µM
# MCF7 [17] = experiment: Phototoxicity in human MCF7 cells assessed as cell survival at 100 uM incubated for 4 hrs followed by irradiation with blue light for 5 mins by MTT assay; format: functional
# A549 [18] = experiment: Dark toxicity in human A549 cells at 200 uM after 4 hrs by MTT assay; format: cell-based; settings: a549, 4 h
# LNCaP [19] = experiment: Increase in protoporphyrin 9 levels in human LNCAP cells at 200 uM after 3 to 24 hrs by fluorescence spectrometer plate reader method; format: functional, cell-based
Compound,Activity (LNCaP [1]),Activity (KB [2]),Activity (LNCaP [3]),Activity [4],Activity (A549 [5]),Activity (MCF7 [6]),Activity (A549 [7]),Activity (KB [8]),Activity (A549 [9]),Activity [10],Activity [11],Activity (KB [12]),Activity (A549 [13]),Activity (LNCaP [14]),Activity (LNCaP [15]),Activity [16],Activity (MCF7 [17]),Activity (A549 [18]),Activity (LNCaP [19])
CCCCn1ccc(=O)c(O)c1C(=O)N[C@@H](Cc1ccccc1)C(=O)NCC(=O)CCC(=O)OC,inactive,inactive,Non-toxic,Non-toxic,inactive,Non-toxic,inactive,inactive,inactive,Non-toxic,Non-toxic,inactive,inactive,inactive,inactive,Non-toxic,inactive,Non-toxic,inactive
COCCn1ccc(=O)c(O)c1C(=O)N[C@@H](CC(C)C)C(=O)NCC(=O)CCC(=O)OC,inactive,inactive,Non-toxic,Non-toxic,inactive,Non-toxic,inactive,inactive,inactive,Non-toxic,Non-toxic,inactive,inactive,inactive,inactive,Non-toxic,inactive,Non-toxic,inactive
CCCCn1ccc(=O)c(O)c1C(=O)N[C@@H](CC(C)C)C(=O)NCC(=O)CCC(=O)OC,inactive,inactive,Non-toxic,Non-toxic,inactive,Non-toxic,inactive,inactive,inactive,Non-toxic,Non-toxic,inactive,inactive,inactive,inactive,Non-toxic,inactive,Non-toxic,inactive
COC(=O)CCC(=O)CNC(=O)[C@H](CC(C)C)NC(=O)c1c(O)c(=O)ccn1C,inactive,inactive,Non-toxic,Non-toxic,inactive,Non-toxic,inactive,inactive,inactive,Non-toxic,Non-toxic,inactive,inactive,inactive,inactive,Non-toxic,inactive,Non-toxic,inactive
COCCn1ccc(=O)c(O)c1C(=O)N[C@@H](Cc1ccccc1)C(=O)NCC(=O)CCC(=O)OC,inactive,inactive,Non-toxic,Non-toxic,inactive,Non-toxic,inactive,inactive,inactive,Non-toxic,Non-toxic,inactive,inactive,inactive,inactive,Non-toxic,inactive,Non-toxic,inactive
